Measurements: the NIST ThermoML archive (doi:10.1021/je5007696)
“And” between values parts separate entries of the source, which are not always exact repeats. Identical values can stand only once.

How the values were obtained:
[1] = Liquid; for viscosity: Concentric cylinders viscometry; for mass density: Vibrating tube method
[2] = refractive index (Na D-line) (dimensionless); details: 101.33 kPa, Liquid, Standard Abbe refractometry
[3] = xn = mol fraction of the nth substance listed; details: 100 kPa, Liquid, x2 = 0; for viscosity: Concentric cylinders viscometry; for mass density: Vibrating tube method
[4] = refractive index (Na D-line) (dimensionless); xn = mol fraction of the nth substance listed; details: 100 kPa, Liquid, Standard Abbe refractometry, x2 = 0

CCCCO [butan-1-ol]
[1], 100 kPa
Details	mass density [kg/m3]	viscosity [mPa·s]
288.15 K	813.373	3.375
293.15 K	809.573	2.945
298.15 K	805.762	2.581
303.15 K	801.923	2.272
308.15 K	798.053	2.008
313.15 K	794.147	1.782
318.15 K	790.231	1.587
323.15 K	786.238	1.419

[2]
Details	refractive index
288.15 K	1.40135
293.15 K	1.39932
298.15 K	1.3973
303.15 K	1.39523
308.15 K	1.39318
313.15 K	1.3911
318.15 K	1.38901
323.15 K	1.38688

CCCCO [butan-1-ol] + CCC(C)=O
Details	mass density, [3] [kg/m3]	refractive index, [4]	viscosity, [3] [mPa·s]
288.15 K	813.373	1.40135	3.375
293.15 K	809.573	1.39932	2.945
298.15 K	805.762	1.3973	2.581
303.15 K	801.923	1.39523	2.272
308.15 K	798.053	1.39318	2.008
313.15 K	794.147	1.3911	1.782
318.15 K	790.231	1.38901	1.587
323.15 K	786.238	1.38688	1.419

CCC(C)=O [butanone]
[1], 100 kPa
Details	mass density [kg/m3]	viscosity
288.15 K	810.133	0.4306 mPa·s and 0.4306 mPa·s
293.15 K	804.926	0.4136 mPa·s and 0.4136 mPa·s
298.15 K	799.695	0.3962 mPa·s and 0.3962 mPa·s
303.15 K	794.435	0.3793 mPa·s and 0.3793 mPa·s
308.15 K	789.142	0.3626 mPa·s and 0.3626 mPa·s
313.15 K	783.814	0.3461 mPa·s and 0.3461 mPa·s
318.15 K	778.451	0.3303 mPa·s and 0.3303 mPa·s
323.15 K	773.047	0.3168 mPa·s and 0.3167 mPa·s

[2]
Details	refractive index
288.15 K	1.38153
293.15 K	1.37892
298.15 K	1.37631
303.15 K	1.37366
308.15 K	1.37102
313.15 K	1.36834
318.15 K	1.36565
323.15 K	1.36294

CCC(C)=O [butanone] + COC(=O)CCCCC(=O)OC
[3]
Details	viscosity [mPa·s]
288.15 K	0.4306
293.15 K	0.4136
298.15 K	0.3962
303.15 K	0.3793
308.15 K	0.3626
313.15 K	0.3461
318.15 K	0.3303
323.15 K	0.3167

COC(=O)CCCCC(=O)OC [dimethyl 1,6-hexanedioate]
[1]
Details	mass density, 293.15 K [kg/m3]	viscosity, 288.15 K [mPa·s]	viscosity, 293.15 K [mPa·s]	viscosity, 298.15 K [mPa·s]	viscosity, 303.15 K [mPa·s]	viscosity, 308.15 K [mPa·s]	viscosity, 313.15 K [mPa·s]	viscosity, 318.15 K [mPa·s]	viscosity, 323.15 K [mPa·s]
100 kPa	–	3.751	3.289	2.91	2.604	2.342	2.121	1.933	1.79
101.33 kPa	1061.93	–	–	–	–	–	–	–	–

Details	refractive index
[2], 298.15 K	1.4264
